The values that follow come from patent US20120003191A1, “VALPROIC ACID, DERIVATIVES, ANALOGUES, AND COMPOSITIONS INCLUDING SAME AND METHODS FOR THEIR THERAPEUTIC USE” (priority 2009, published 2012).

Molecules are shown by their SMILES.

In experiment [1] the test system is dyw mouse model of MDC1A. The experiment can be described thus: VPA in the dyw mouse model of MDC1A (predicted). The class given is in vivo. As for the experimental part: In particular, the effect of VPA on MDC1A is determined by using the dyw mouse model of MDC1A. VPA (60 mg/kg or 240 mg/kg body weight) is administered i.p. daily to male dyw mice (n=11 each, as determined by Power analysis with α=0.05, p=0.8 and r=0.5) for 6 weeks starting at 10 days of age. Daily body weights are noted and mice observed for signs of overt toxicity. Control mice of each genotype will be injected with the same volumes of sterile saline. At the end of the course of injections, mice are sacrificed and the gastrocnemius-soleus, quadriceps, heart and diaphragm harvested. Tissues are sectioned on a Leica CM 1850 cryostat to 10 μm. Hematoxylin-eosin staining is performed on the sections. The effect of VPA on the Akt pathway, fibrosis, apoptosis and/or fiber-diameter variation in skeletal muscle of dyw mice is determined by methods known to those of ordinary skill in the art including, but not limited to those described below.
As muscle fiber-diameter variation is a pathological feature in MDC1A muscle, it can be determined if treatment with VPA restores this parameter in dyw mice. Using image analysis software, muscle-fiber diameters are calculated in at least 500 fibers per mouse in both the VPA and control treated groups. […] Data is analyzed by ANOVA and a p-value of <0.05 is considered statistically significant.
To quantify fibrosis in muscles, western blotting is performed on muscle extracts using an antibody against collagen VI (Santa Cruz Biotechnology, Santa Cruz, Calif.). Protein extracts are made from muscles as reported (Gurpur et al., 2009) and the Bradford assay is done to determine protein concentrations. Western blotting is carried out using 1:1000 dilution of the anti-collagen VI antibody. The blots are re-probed with an antibody against tubulin to ensure equal protein loading. Band intensities are quantified using the LiCor Odyssey software (LiCor Biosciences, Lincoln, Neb.). Ratio of the collagen VI to tubulin band-intensities is calculated. […] Data is analyzed by ANOVA and a p-value of <0.05 is considered statistically significant.
Muscle fiber loss due to apoptosis is a significant problem in MDC1A patients. To determine if VPA treatment decreases apoptosis in dyw muscle, after the course of injections, mice are sacrificed and the gastrocnemius-soleus, quadriceps and diaphragm harvested. Tissues are sectioned on a Leica CM 1850 cryostat to 10 μm. The DeadEnd fluorometric TUNEL assay kit (Promega, Madison, Wis.) is used as per the manufacturer's instructions to label apoptotic nuclei in the cryosections. The total number of nuclei (DAPI labeled, fluorescing blue) and the apoptotic nuclei (fluorescing green) are counted in 15 random fields for each muscle, for each mouse. The proportion of apoptotic nuclei is quantified and compared between the VPA injected and control mice. […] Data is analyzed by ANOVA and a p-value of <0.05 is considered statistically significant.
VPA is administered to male dyw mice (n=11 each) daily for 6 weeks with 80 mg/kg or 240 mg/kg body weight of VPA starting at 10 days of age. Daily body weights are noted and mice are observed for signs of overt toxicity. Control mice are injected with the same volumes of sterile saline.
After the course of injections, mice are sacrificed and the gastrocnemius-soleus, quadriceps and diaphragm harvested. Protein extracts are made from the muscles as reported (Gurpur et al., 2009). […]

Experiment [2] concerns mTOR. Put plainly: Western blotting of activated mTOR in α7+/− myotubes. The class given is cell-based, mouse. To be noted: VPA for 48 or 72 hours. As to the method: α7^+/− myogenic cells were cultured on 1% gelatin-coated plastic plates in Ham's F-10 growth medium (20% FBS, 0.5% chick embryo extract, 5 ng/ml bFGF, 2 mM glutamine, 100 U/ml penicillin and 100 μg/ml streptomycin). After six passages, cells were grown in DMEM containing 20% FBS, 0.5% chick embryo extract, 2 mM glutamine, 100 U/ml penicillin and 100 μg/ml streptomycin. Differentiation was induced by switching the medium to DMEM containing 2% horse serum and antibiotics when cells attained 90% confluence. After 48 hours of differentiation, 2 mM VPA was added and supplied fresh every 24 hours. Wortmannin was used at 100 nM and added fresh every 24 hours.
Cell lysates of differentiating cells on 60 mm dishes were prepared as follows: the cells were washed twice with PBS and 200 μl Triton X-100 lysis buffer (2% Triton X-100, 20 mM Tris-Cl, pH 7.4, 150 mM NaCl, 1 mM EDTA, 1 mM EGTA, 2.5 mM NaPPi, 1 mM β-glycerophosphate, 1 mM sodium vanadate, 1:200 Protease Inhibitor Cocktail (EMD Chemicals, San Diego, Calif.) and 1 mM PMSF) were added. […] Protein concentrations were determined by the Bradford assay. […] The supernatants were collected and protein concentrations were determined spectrophotometrically at OD260 and OD280. […] ImageQuant analysis software (Molecular Dynamics, Sunnyvale, Calif.) was used to quantify band intensity.
On the technique in general: In western blotting, separated proteins are transferred to a membrane and probed.

Take `CCCC(CCC)C(=O)O` [VPA, valproic acid]: in experiment [1], the “Akt pathway in skeletal muscle of dyw mice” value is on record as “activates the Akt pathway”, the “apoptosis in skeletal muscle of dyw mice” value is on record as “inhibiting apoptosis”, the “fiber-diameter variation in skeletal muscle of dyw mice” value is “decreasing fiber-diameter variation” and the “fibrosis in skeletal muscle of dyw mice” value is reported as “decreasing fibrosis”. Further, in experiment [1], the “pathology in dyw mice” value is “ameliorate pathology”. Also, the “levels of activated mTOR” value in experiment [2] is “higher levels”.
